“Also recorded” adds a separate entry of the source. Where two headings read alike, the source gives them in different places.
Legend:
[1] = system: non-senescent IMR90 cells; assay: CellTiter-Glo cell viability assay, non-senescent IMR90; assay type: cell-based; conditions: Homo sapiens, IMR-90, 72 h, IMR90, 3 days
Experimental: (§1) To determine whether ABT-263 is selectively toxic to senescent cells compared to non-senescent cells, a cell viability assay was used to assess cell survival following treatment with ABT-263. IMR90 cells (human primary lung fibroblasts (IMR90) (IMR-90 (ATCC® CCL-186™, Mannassas, Va.) were seeded in six well plates, and cells were induced to senescence with 10 Gy of ionizing radiation (IR) (Day 0). The media was refreshed every 3 days. The senescent phenotype is allowed to develop for 7 days at which point a cell count was made to determine the baseline number of cells followed by seeding into 96-well plates. On day 8, the senescent cells (irradiated) and the non-senescent cells (the non-radiated cells), were exposed to serial dilutions of ABT-263 for a period of 3 days. ABT-263 concentrations ranged from 0.5 nM to 3 μM. Each condition was seeded in triplicate.
(§2) After three days of treatment (Day 11), cells were assayed for cell survival using the commercially available CellTiter-Glo® (CTG) Luminescent Cell Viability Assay (Promega Corporation, Madison, Wis.). The assay determines the number of viable cells in culture based on the quantitation of ATP present which is an indicator of metabolically active cells.
(§3) The experiments performed for assessing the effect of these other Bcl-2 inhibitors were performed essentially as described in Example 7. Cells were exposed to ABT-199 at serial dilution concentrations ranging from 15 nM to 100 μM (FIGS. 26 and 27). Cells were exposed to Obatoclax at concentrations ranging from 1.4 nM to 9 μM (FIG. 28).
(§4) The effect of ABT-263 in combination with the Akt inhibitor MK-2206 was tested for selective toxicity of senescent cells compared to non-senescent cells in IMR90 cells. The methods of Example 7 were repeated except that cell cultures were exposed to 10 nM MK-2206 (Selleckem, Cat# S1078) in addition to serial dilutions of ABT-263.

[2] = system: senescent (irradiated) IMR90 cells; assay: CellTiter-Glo cell viability assay, senescent IMR90; assay type: cell-based, human
Experimental: as §1, §2, §3, §4

Senescent cells (SnC) = assay: Cell survival EC50 of MDM2 inhibitors, senescent cells; conditions: for EC50: read-out: Cell survival data EC50 SnC
[3] = system: quiescent high density non senescent cells (HD NsC); assay: Cell survival EC50 of MDM2 inhibitors, quiescent high density non senescent cells; conditions: read-out: Cell survival data EC50 HD NsC
p16-3MR mice = assay: Senescence induced by chemotherapeutic drugs in p16-3MR mice (luminescence, skin mRNA); assay type: in vivo, mouse; conditions: for level of senescent cells (luminescence): p<0.05
Experimental: Paclitaxel induces senescence and SASP in p16-3MR transgenic mice. Groups of mice (n=4) were treated three times every two days with 20 mg/kg paclitaxel or vehicle. […] The level of mRNA in skin was determined for each of the target genes: p16, 3MR transgene, and IL-6.
To examine senescence induced by different chemotherapeutic drugs, groups of p16-3MR animals (n=4) were treated with thalidomide (100 mg/kg; 7 daily injections); romidepsin (1 mg/kg; 3 injections); pomalidomide (5 mg/kg; 7 daily injections); lenalidomide (50 mg/kg; 7 daily injections); 5-azacytidine (5 mg/kg; 3 injections) and compared with doxorubicin (10 mg/kg, 2-4 injections over 7 days).

Row | SMILES | EC50 dose ratio HD NsC/SnC (Senescent cells (SnC)) | EC50 (Senescent cells (SnC)) | EC50 [3] | further results
1 | CC1(C)CCC(CN2CCN(c3ccc(C(=O)NS(=O)(=O)c4ccc(NCC5CCOCC5)c([N+](=O)[O-])c4)c(Oc4cnc5[nH]ccc5c4)c3)CC2)=C(c2ccc(Cl)cc2)C1 [ABT-199, 4-[4-[[2-(4-Chlorophenyl)-4,4-dimethylcyclohex-1-en-1-yl]methyl]piperazin-1-yl]-N-[[3-nitro-4-[[(tetrahydro-2H-pyran-4-yl)methyl]amino]phenyl]sulfonyl]-2-[(1H-pyrrolo[2,3-b]pyridin-5-yl)oxy]benzamide] | – | – | – | IC50 ([1]; CellTiter-Glo, read-out: IC50 on non-senescent cells): 6 to 15.8 µM; IC50 ([2]; Homo sapiens, IMR-90, 72 h, IMR90, 3 days, read-out: IC50 in senescent cells): 6.9 to 12.4 µM; selective targeting of senescent cells over non-senescent cells ([2]; IMR90): inability
2 | CC(C)[C@@H](CS(=O)(=O)C(C)C)N1C(=O)[C@@](C)(CC(=O)O)C[C@H](c2cccc(Cl)c2)[C@H]1c1ccc(Cl)cc1 [AMG-232, 2-((3R,5R,6S)-5-(3-chlorophenyl)-6-(4-chlorophenyl)-1-((S)-1-(isopropylsulfonyl)-3-methylbutan-2-yl)-3-methyl-2-oxopiperidin-3-yl)acetic acid] | 1.2 | 3.4 µM | 4.1 µM | –
3 | O=C(/C=C/c1ccc(I)cc1)c1ccc(B(O)O)cc1 [Boronate, trans-4-Iodo, 4′-boranyl-chalcone] | 14.1 | 10.8 µM | 153 µM | selectivity for senescent cells over quiescent cells (Senescent cells (SnC)): particularly high selectivity; selectivity for senescent cells over quiescent cells (Senescent cells (SnC); listed as boronate): high specificity
4 | O=C1c2c(c(-c3ccccc3)nn2Cc2ccccc2)C(c2ccc(Br)cc2)N1CCCn1ccnc1 (centres unmarked) [CAY10681, 4-(4-bromophenyl)-4,5-dihydro-5-[3-(1H-imidazol-1-yl)propyl]-3-phenyl-1-(phenylmethyl)-pyrrolo[3,4-c]pyrazol-6(1H)-one] | 1.6 | 11 µM | 17.6 µM | –
5 | O=C1c2c(c(-c3ccccc3)nn2Cc2ccc(F)cc2)C(c2ccc(Br)cc2)N1CCCn1ccnc1 (centres unmarked) [CAY10682, 4-(4-bromophenyl)-1-[(4-fluorophenyl)methyl]-4,5-dihydro-5-[3-(1H-imidazol-1-yl)propyl]-3-phenyl-pyrrolo[3,4-c]pyrazol-6(1H)-one] | 1.3 | 11.2 µM | 14.3 µM | –
6 | c1ccc2c(CCNc3ccc(Nc4ccncc4)cc3)c[nH]c2c1 [JNJ 26854165, N1-(2-(1H-indol-3-yl)ethyl)-N4-(pyridin-4-yl)benzene-1,4-diamine] | 6.5 | 1 µM | 6.6 µM | selectivity for senescent cells over quiescent cells (Senescent cells (SnC)): high specificity; also recorded: particularly high selectivity
7 | CCCCn1c(=O)[nH]c(O)c(C2NCCc3c2[nH]c2ccccc32)c1=O (centres unmarked) [MEL23, 3-Butyl-6-hydroxy-5-(2,3,4,9-tetrahydro-1H-pyrido[3,4-b]indol-1-yl)pyrimidine-2,4(1H,3H)-dione] | 5.2 | 4 µM | 20.9 µM | selectivity for senescent cells over quiescent cells (Senescent cells (SnC); listed as Me123): high specificity; also recorded: particularly high selectivity
8 | Cn1c(=O)c([N+](=O)[O-])c(Cl)c2ccccc21 [ML214] | – | – | – | level of killing of senescent cells versus non-senescent cells ([2]; irradiated and non-senescent IMR90): comparable to the level of killing of non-senescent cells
9 | COC1=CC(c2cc3ccccc3[nH]2)=N/C1=C\c1[nH]c(C)cc1C [Obatoclax] | – | – | – | IC50 ([1]; read-out: IC50 in non-senescent cells): 0.075 µM
10 | COc1cc(C(=O)O)ccc1NC(=O)[C@@H]1N[C@@H](CC(C)(C)C)[C@](C#N)(c2ccc(Cl)cc2F)[C@H]1c1cccc(Cl)c1F [RG7388, 4-[[(2R,3S,4R,5S)-3-(3-chloro-2-fluorophenyl)-4-(4-chloro-2-fluorophenyl)-4-cyano-5-(2,2-dimethylpropyl)pyrrolidine-2-carbonyl]amino]-3-methoxybenzoic acid] | 1.0 | 32.8 µM | 31.5 µM | –
11 | OCc1ccc(-c2ccc(-c3ccc(CO)s3)o2)s1 [RITA, 5,5′-(2,5-Furandiyl)bis-2-thiophenemethanol] | 0.9 | 254 µM | 223 µM | –
12 | COc1cccc2c1C(=O)c1c(O)c3c(c(O)c1C2=O)C[C@@](O)(C(=O)CO)C[C@@H]3O[C@H]1C[C@H](N)[C@H](O)[C@H](C)O1 [doxorubicin] | – | – | – | level of senescent cells (luminescence) (p16-3MR mice): significant levels of senescent cells
13 | Nc1cccc2c1CN(C1CCC(=O)NC1=O)C2=O (centres unmarked) [lenalidomide] | – | – | – | level of senescent cells (luminescence) (p16-3MR mice): significant levels of senescent cells
14 | Nc1cccc2c1C(=O)N(C1CCC(=O)NC1=O)C2=O (centres unmarked) [omalidomide] | – | – | – | level of senescent cells (luminescence) (p16-3MR mice): significant levels of senescent cells
15 | CC(=O)O[C@H]1C(=O)[C@@]2(C)[C@H]([C@H](OC(=O)c3ccccc3)[C@]3(O)C[C@H](OC(=O)[C@H](O)[C@@H](NC(=O)c4ccccc4)c4ccccc4)C(C)=C1C3(C)C)[C@]1(OC(C)=O)CO[C@@H]1C[C@@H]2O [paclitaxel] | – | – | – | senescence shown by luminescence (p16-3MR mice; 20 mg/kg three times every two days): Senescence was observed; levels of mRNA for p16, 3MR and IL-6 in skin (p16-3MR mice; 20 mg/kg three times every two days, versus vehicle): increased
